From US20020128231A1 (priority 2000, published 2002)

Key:
P-glycoprotein = P-glycoprotein (Homo sapiens, UniProt P08183); experiment: Rhodamine 123 transport assay across HCT-8 cell monolayers; details: compound 10 μM, Rh123 15 μM, HCT-8 cells; for inhibition at 10 μM: human, HCT-8 cell monolayers in Transwell dishes, probe Rhodamine 123 (15 μM), % Inhibition of R123 Transport
[1] = tested on: MDR1-expressing NIH 3T3 cells; experiment: Cytotoxicity (MTT) assay: modulation of drug cytotoxicity in multidrug resistant cells; details: compound 5 μM; 50 nM doxorubicin; 72 hours; MTT
Experimental: Cytotoxicity assays were performed with many of the compounds of Formula I to verify their usefulness as inhibitors of P-gp.
Parental NIH3T3 Swiss mouse embryo cell line was obtained from American Type Culture Collection and was grown in Dulbecco's Modified Eagles Medium supplemented with 4.5 g/L glucose, 10% fetal bovine serum, 2 mM L-glutamine, and 0.01 mg/ml gentamicin. […] All cells were maintained in a humidified atmosphere with 5% CO2 at 37° C.
Parental and MDR1-expressing NIH 3T3 cells were plated at a density of 2.5-3.0×10^3 cells/well in 96-well microtiter plates and were exposed to 50 nM of doxoriubicin, 7.5 nM vinblastine, 75 nM colchicine or 300 nM paclitaxel for 72 hours. Cell viability was determined with the colorimetric MTT (3-(4,5-dimethylthiazol-2-yl)-2,5-diphenyl tetrazolium) assay as previously described (Mosmann T., J. Immunol. Methods, 65: 55-63 (1983); Hansen M. B. et al., J. Immunol. Methods, 119: 203-210 (1989)) and the absorbance was measured at 570 nm.

Sequence of P-glycoprotein (P08183 whole entry): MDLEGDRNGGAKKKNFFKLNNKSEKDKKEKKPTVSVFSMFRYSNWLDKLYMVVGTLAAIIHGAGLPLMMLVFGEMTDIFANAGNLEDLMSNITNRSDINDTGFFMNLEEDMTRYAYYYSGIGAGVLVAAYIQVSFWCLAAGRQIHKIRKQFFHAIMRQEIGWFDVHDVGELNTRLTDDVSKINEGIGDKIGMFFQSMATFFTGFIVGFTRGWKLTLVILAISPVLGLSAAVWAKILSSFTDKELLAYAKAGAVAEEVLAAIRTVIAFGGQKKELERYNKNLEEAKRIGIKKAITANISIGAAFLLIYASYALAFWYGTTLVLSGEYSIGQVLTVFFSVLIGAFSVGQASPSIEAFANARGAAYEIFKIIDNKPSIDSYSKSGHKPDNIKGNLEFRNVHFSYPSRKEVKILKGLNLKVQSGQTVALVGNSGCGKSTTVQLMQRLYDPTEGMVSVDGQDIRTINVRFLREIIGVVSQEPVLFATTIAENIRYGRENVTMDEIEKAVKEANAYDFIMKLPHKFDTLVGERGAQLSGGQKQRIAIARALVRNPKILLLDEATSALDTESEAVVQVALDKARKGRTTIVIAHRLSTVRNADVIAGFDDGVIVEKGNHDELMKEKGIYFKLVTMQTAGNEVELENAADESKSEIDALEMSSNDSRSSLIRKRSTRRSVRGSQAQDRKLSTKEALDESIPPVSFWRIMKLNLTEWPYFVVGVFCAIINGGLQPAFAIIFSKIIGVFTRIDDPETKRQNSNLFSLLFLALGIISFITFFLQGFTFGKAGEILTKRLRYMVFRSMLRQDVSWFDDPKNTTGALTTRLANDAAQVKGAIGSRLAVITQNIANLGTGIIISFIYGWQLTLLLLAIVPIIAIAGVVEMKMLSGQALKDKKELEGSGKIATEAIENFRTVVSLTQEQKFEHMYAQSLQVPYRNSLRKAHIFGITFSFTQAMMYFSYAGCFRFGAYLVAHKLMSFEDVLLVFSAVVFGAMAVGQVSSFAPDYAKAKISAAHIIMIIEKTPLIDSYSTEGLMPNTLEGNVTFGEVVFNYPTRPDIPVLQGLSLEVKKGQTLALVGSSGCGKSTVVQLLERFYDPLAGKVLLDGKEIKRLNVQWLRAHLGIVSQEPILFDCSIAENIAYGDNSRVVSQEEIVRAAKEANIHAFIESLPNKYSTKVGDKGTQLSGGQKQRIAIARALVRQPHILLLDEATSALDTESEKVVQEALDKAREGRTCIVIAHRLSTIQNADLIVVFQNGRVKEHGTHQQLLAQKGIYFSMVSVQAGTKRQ

Structure (SMILES)	% Inhibition of R123 Transport (P-glycoprotein) [%]	Modulation of Drug Resistance (percentage increase in doxorubicin cytotoxicity in the presence of the compounds versus in their absence) [1] [%]	inhibition at 10 μM (P-glycoprotein) [%]
COc1ccc(C2c3cc(OC)c(OC)cc3C(CCO[Si](c3ccccc3)(c3ccccc3)C(C)(C)C)C2CO)cc1OC (stereo not shown) [AV-175, [1-[2-t-butyldiphenyl-silanoxy)-ethyl-3-(3,4-dimethoxyphenyl)-5,6-dimethoxy-indan-2-yl]-methanol]	71.3	52.50	–
COc1ccc(C2c3cc(OC)c(OC)cc3C(CCNC(=O)c3ccc(Br)cc3)C2CNC(=O)c2ccc(Br)cc2)cc1OC (stereo not shown) [AV-263]	80.78	12.2	–
COc1ccc(C2c3cc(OC)c(OC)cc3C(CC(=O)N3CCN(C(=O)OC(C)(C)C)CC3)C2C(=O)N2CCN(C(=O)OC(C)(C)C)CC2)cc1OC (stereo not shown) [AV-180, 4-{2-[3-(3,4-dimethoxyphenyl)-5,6-dimethoxy-2-(piperazine-1-carboxylic acid t-butyl ester)-indan-1-yl]-acetyl}-piperazine-1-carboxylic acid t-butyl ester]	40.4	42.84	–
CCOc1ccccc1N1CCN(C(=O)CC2c3cc(OC)c(OC)cc3C(c3ccc(OC)c(OC)c3)C2C(=O)N2CCN(C)CC2)CC1 (stereo not shown) [AV-256]	75.61	8.7	–
COc1ccc(N2CCN(CCC3c4cc(OC)c(OC)cc4C(c4ccc(OC)c(OC)c4)C3CN3CCN(c4ccc(OC)cc4)CC3)CC2)cc1 (stereo not shown) [AV-183, 2-{3-(3,4-dimethoxyphenyl)-5,6-dimethoxy-2-[4-(4-methoxy)-piperazin-1-yl-methyl]-indan-1-yl}-1-[4-(4-methoxyphenyl)-piperazin-1-yl]-ethane]	63.0	52.24	–
COc1ccc(C2c3cc(OC)c(OC)cc3C(CC(=O)N3CCN(c4ccc(Cl)cc4)CC3)C2C(=O)N2CCN(c3ccc(Cl)cc3)CC2)cc1OC (stereo not shown) [AV-167, 2-[2-[4-(4-chlorophenyl)-piperazin-1 carbonyl]-3-(3,4-dimethoxyphenyl)-5,6-dimethoxy-indan-1-yl]-1-[4-(4-chlorophenyl)piperazine-1-yl]-ethanone]	–	68.21	66.3
CCOc1ccccc1N1CCN(C(=O)CC2c3cc4c(cc3C(c3ccc5c(c3)OCO5)C2C(=O)N2CCN(c3ccccc3OCC)CC2)OCO4)CC1 (single isomer, unassigned) [AV-258-2, 2-{7-benzo[1,3]dioxol-5-yl-6-[4-(2-ethoxy-phenyl)-piperazin-1-carbonyl]-6,7-dihydro-5H-indeno[5,6-d][1,3]dioxol-5-yl}-1-[4-(2-ethoxy-phenyl)-piperazin-1-yl]-ethanone]	67.09	19.2	–
COc1ccc(C2c3cc(OC)c(OC)cc3C(CC(=O)N3CCN(C(=O)OCc4ccccc4)CC3)C2C(=O)N2CCN(C(=O)OCc3ccccc3)CC2)cc1OC (stereo not shown) [AV-179, 4-{2-[3-(3,4-dimethoxyphenyl)-5,6-dimethoxy-2-(piperazine-1-carboxylic acid benzyl ester)-indan-1-yl]-acetyl}-piperazine-1-carboxylic acid benzyl ester]	87.7	58.07	–
CCN(CC)C(=O)CC1c2cc(OC)c(OC)cc2C(c2ccc(OC)c(OC)c2)C1C(=O)N(CC)CC (stereo not shown) [AV-182, 1-(3,4-dimethoxyphenyl)-3-diethylcarbamoylmethyl-5,6-dimethoxy-indan-2-carboxylic acid diethyl amide]	–	23.87	25
CCCCCCCCCCOc1ccc(C2c3cc(OCCCCCCCCCC)c(OC)cc3C(CC(=O)N3CCN(c4ccccc4OCC)CC3)C2C(=O)N2CCN(c3ccccc3OCC)CC2)cc1OC (stereo not shown) [AV-209, 2-{5-decyloxy-3-(4-decyloxy-3-methoxyphenyl)-2-[4-(2-ethoxyphenyl)-piperazine-1-carbonyl]-6-methoxy-indan-1-yl}-1-[4-(2-ethoxyphenyl)-piperazin-1-yl]-ethanone]	–	1.16	47.3
COc1ccc(C2c3cc(OC)c(OC)cc3C(CCNS(=O)(=O)c3ccccc3)C2CNS(=O)(=O)c2ccccc2)cc1OC (stereo not shown) [AV-223, N-{2-[(2-N-methyl)-benzenesulfonamide-3-(3,4-dimethoxyphenyl)-5,6-dimethoxy-indan-1-yl}-ethyl}-benzensulfonamide]	74.50	36.55	–
COCC1C(CCN2CCN(C(=O)OCc3ccccc3)CC2)c2cc(OC)c(OC)cc2C1c1ccc(OC)c(OC)c1 (stereo not shown) [AV-200, 4-{2-[3-(3,4-dimethoxyphenyl)-5,6-dimethoxy-2-methoxymethyl-indan-1-yl]-ethyl}-piperazine-1-carboxylic acid benzyl ester]	–	61.40	86.4
COc1ccc(C2c3cc(OC)c(OC)cc3C(CCNC(=O)c3ccccc3)C2CNC(=O)c2ccccc2)cc1OC (stereo not shown) [AV-264]	83.51	6.3	–
CCOc1ccccc1N1CCN(C(=O)CC2c3cc(OC)c(OC)cc3C(c3ccc(OC)c(OC)c3)C2C(=O)N2CCN(c3ccccc3OCC)CC2)CC1 (stereo not shown) [AV-171, 2-{3-(3,4-dimethoxyphenyl)-5,6-dimethoxy-2-[4-(2-ethoxyphenyl)-piperazin-1-carbonyl]-indan-1-yl}-1-[4-(2-ethoxyphenyl)-1-yl]-ethanone]	92.9	66.11	–
CCOc1ccccc1N1CCN(C(=O)CC2c3cc4c(cc3C(c3ccc5c(c3)OCO5)C2C(=O)N2CCN(c3ccccc3OCC)CC2)OCO4)CC1 (single isomer, unassigned) [AV-258-1, 2-{7-benzo[1,3]dioxol-5-yl-6-[4-(2-ethoxy-phenyl)-piperazin-1-carbonyl]-6,7-dihydro-5H-indeno[5,6-d][1,3]dioxol-5-yl}-1-[4-(2-ethoxy-phenyl)-piperazin-1-yl]-ethanone]	–	7.9	69.9
COc1ccc(C2c3cc(OC)c(OC)cc3C(CC(=O)N3CCN(c4ccc(F)cc4)CC3)C2C(=O)N2CCN(c3ccc(F)cc3)CC2)cc1OC (stereo not shown) [AV-169, 2-{2-[4-(4-fluorophenyl)-piperazin-1-carbonyl]-3-(3,4-dimethoxyphenyl)-5,6-dimethoxy-indan-1-yl}-1-[4-(4-fluorophenyl)piperazine-1-yl]-ethanone]	–	71.29	77.1
COCC1C(CCOS(C)(=O)=O)c2cc(OC)c(OC)cc2C1c1ccc(OC)c(OC)c1 (stereo not shown) [AV-177, methanesulfonic acid 2-[3-(3,4-dimethoxyphenyl)-5,6-dimethoxy-2-methoxymethyl-indan-1-yl] ethyl ester]	9.4	40.32	–
COc1ccc(C2c3cc(OC)c(OC)cc3C(CC(=O)N3CCNCC3)C2C(=O)N2CCNCC2)cc1OC (stereo not shown) [AV-185, 2-[3-(3,4-dimethoxyphenyl)-5,6-dimethoxy-2-(piperazine-1-carbonyl)-indan-1-yl]-1-piperazin-1-yl-ethanone]	–	18.48	25.1
COc1cc(C2c3cc(O)c(OC)cc3C(CC(=O)N3CCC(Cc4ccccc4)CC3)C2C(=O)N2CCC(Cc3ccccc3)CC2)ccc1O (single isomer, unassigned) [AV-251-2]	75.44	2.4	–
COc1ccc(C2c3cc(OC)c(OC)cc3C(CC(=O)N3CCN(c4ccc(C(C)=O)cc4)CC3)C2C(=O)N2CCN(c3ccc(C(C)=O)cc3)CC2)cc1OC (stereo not shown) [AV-163, 2-[2-[4-(4-acetylphenyl)-piperazin-1-carbonyl]-3-(3,4-dimethoxyphenyl)-5,6-dimethoxy-indan-1-yl]-1[4-(4-acetylphenyl)piperazine-1-yl]-ethanone]	–	72.55	89.7
CCOc1ccccc1N1CCN(C(=O)CC2c3cc(OC)c(OC)cc3C(c3ccc(OC)c(OC)c3)C2C(=O)O)CC1 (stereo not shown) [AV-250, 1-(3,4-Dimethoxy-phenyl)-3-{2-[4-(2-ethoxy-phenyl)-piperazin-1-yl]-2-oxo-ethyl}-5,6-dimethoxy-indan-2-carboxylic acid]	–	−7.1	55.9
CCOc1ccccc1N1CCN(C(=O)CC2c3cc(OC)c(OCc4ccccc4)cc3C(c3ccc(OCc4ccccc4)c(OC)c3)C2C(=O)N2CCN(c3ccccc3OCC)CC2)CC1 (stereo not shown) [AV-205, 2-{5-benzyloxy-3-(4-benzyloxy-3-methoxyphenyl)-2-{4-(2-ethoxyphenyl)-piperazine-1-carbonyl}-6-methoxy-indan-1-yl}-1-{4-(2-ethoxyphenyl)-piperazin-1-yl]-ethanone]	–	35.56	53.6
CCCc1ccc(C(=O)NCCC2c3cc(OC)c(OC)cc3C(c3ccc(OC)c(OC)c3)C2CNC(=O)c2ccc(CCC)cc2)cc1 (stereo not shown) [AV-262]	83.47	18.0	–
